Drawing on patent publication US8017612B2, “Piperazine compound and use thereof as a HCV polymerase inhibitor” (priority 2006, dated 2011), this text covers IC50 for 19 compounds.

Experiment [1] deals with T1, HCV polymerase (NS5B) type 1b (Hepatitis C virus genotype 1b, UniProt P26663).
T1 construct: a region encoding NS5B (J Virol 1991 March, 65(3), 1105-13, 544 amino acids after deletion of 47 amino acids on the C-terminal); 6xHis (C); made in house; host or cells: Escherichia coli
Put plainly: Assay of enzyme (HCV polymerase) inhibitory activity, type 1b enzyme. The following applies: HCV polymerase inhibitory activity (IC50), 1b, type 1b enzyme 0.5 μg/ml, 25° C., 60 min. The class given is biochemical, HCV BK strain (type 1b). The text has this:
(§1) The evaluation of the HCV polymerase inhibitory activity of the compound of the present invention is explained in the following. This polymerase is an enzyme coded for by the non-structural protein region called NS5B on the genome RNA of HCV.
(§2) i) Preparation of Enzyme (HCV Polymerase)
(§3) Using, as a template, a cDNA clone corresponding to the full length genome RNA of HCV BK strain (type 1b) obtained from the blood of a patient with hepatitis C, a region encoding NS5B (J Virol 1991 March, 65(3), 1105-13, 544 amino acids after deletion of 47 amino acids on the C-terminal) was amplified by PCR. The objective gene was prepared by adding a 6 His tag {base pair encoding 6 continuous histidine (His)} to the 3′ end thereof and transformed to Escherichia coli. The Escherichia coli capable of producing the objective protein was cultured. The obtained cells were suspended in a buffer solution and crushed in a microfluidizer. The supernatant was obtained by centrifugation and applied to various column chromatographys {mono-S, Sephacryl S-200 (Pharmacia)}, inclusive of metal chelate chromatography, to give a standard enzyme product.
(§4) ii) Synthesis of Substrate RNA
(§5) Using a synthetic primer designed based on the sequence of HCV genomic 3′ untranslated region, a DNA fragment (148 bp) containing polyU and 3′X sequence was entirely synthesized and cloned into plasmid pBluescript SK II(+) (Stratagene). The cDNA encoding full length NS5B, which was prepared in i) above, was digested with restriction enzyme KpnI to give a cDNA fragment containing the nucleotide sequence of from the restriction enzyme cleavage site to the termination codon. This cDNA fragment was inserted into the upstream of 3′ untranslated region of the DNA in pBluescript SK II(+) and ligated. The about 450 bp inserted DNA sequence was used as a template in the preparation of substrate RNA. This plasmid was cleaved immediately after the 3′X sequence, linearized and purified by phenol-chloroform treatment and ethanol precipitation to give DNA.
(§6) RNA was synthesized (37° C., 4 hr) by run-off method using this purified DNA as a template, a promoter of pBluescript SK II(+), MEGAscript RNA synthesis kit (Ambion) and T7 RNA polymerase. DNase I was added and the mixture was incubated for 1 hr. The template DNA was removed by decomposition to give a crude RNA product. This crude product was treated with phenol-chloroform and purified by ethanol precipitation to give the objective substrate RNA.
(§7) This RNA was applied to urea denaturation polyacrylamide gel electrophoresis to confirm the quality thereof and preserved at −80° C.
(§8) iii) Assay of Enzyme (HCV Polymerase) inhibitory activity
(§9) A test substance (compound of the present invention) and a reaction mixture (30 μl) having the following composition were reacted at 25° C. for 60 min.
(§10) 10% Trichloroacetic acid and 1% sodium pyrophosphate solution (150 μl) at 4° C. was added to this reaction mixture to stop the reaction. The reaction mixture was left standing at 4° C. for 15 min to insolubilize RNA. This RNA was trapped on a glass filter (PerkinElmer, GF/B) upon filtration by suction. This filter was washed with a solution containing 1% trichloroacetic acid and 0.1% sodium pyrophosphate, washed with 90% ethanol and dried. A liquid scintillation cocktail (PerkinElmer) was added and the radioactivity of RNA synthesized by the enzyme reaction was measured on a liquid scintillation counter.
The HCV polymerase inhibitory activity (IC50) of the compound of the present invention was calculated from the values of radioactivity of the enzyme reaction with and without the test substance.
Reaction mixture: HCV polymerase (type 1b 0.5 μg/ml or type 1a 1.5 μg/m) obtained in i), substrate RNA (5 μg/ml) obtained in ii), ATP (50 μM), GTP (50 μM), CTP (50 μM), UTP (2 μM), [5,6-^3H]UTP (30-60 Ci/mmol (Amersham Biosciences), 1 μCi) 20 mM Tris-HCl (pH 7.5), EDTA (1 mM), MgCl2 (5 mM), NaCl (50 mM), DTT (1 mM), BSA (0.01%)

Experiment [2] addresses T2, HCV polymerase (NS5B) type 1a (Hepatitis C virus genotype 1a, UniProt P26664).
T2 construct: made in house; host or cells: Escherichia coli (by the 'similar method' of the 1b enzyme)
In words: Assay of enzyme (HCV polymerase) inhibitory activity, type 1a enzyme. The experiment is classed as biochemical, HCV type 1a (cloned from the blood of patients). The following applies: HCV polymerase inhibitory activity (IC50), 1a, type 1a enzyme 1.5 μg/ml, 25° C., 60 min.
Source text: as §1, §2, §3
Standard enzyme products for type 1a (cloned from the blood of patients) were also obtained by a similar method.
as §4, §5, §6, §7, §8, §9, §10
The HCV polymerase inhibitory activity (IC50) of the compound of the present invention was calculated from the values of radioactivity of the enzyme reaction with and without the test substance. […]

A value given as a limit tells only on which side of the number the result lay.

The term IC50 denotes the point on the concentration scale where inhibition reaches its midpoint. Take `CC(=O)N1CCN(S(=O)(=O)c2ccc(C(C)C)cc2)C(C(=O)NCc2ccc(N(C)C)cc2)C1` (centres unmarked) [Example 37, 4-acetyl-1-(4-isopropyl-benzenesulfonyl)-piperazine-2-carboxylic acid 4-dimethylamino-benzylamide]: the concentration for half-maximal inhibition (IC50) in experiment [1] and in experiment [2] was 100 to 1000 nM each time.
As for `CC(=O)N1CCN(S(=O)(=O)c2ccc(C(C)C)cc2)C(C(=O)NCc2ccc(S(N)(=O)=O)cc2)C1` (centres unmarked) [Example 38, 4-acetyl-1-(4-isopropyl-benzenesulfonyl)-piperazine-2-carboxylic acid 4-sulfamoyl-benzylamide], the IC50 in experiment [1] and in experiment [2] was more than 1000 nM each time.
With `CC(=O)Nc1ccc(S(=O)(=O)N2CCN(C(C)=O)CC2C(=O)NCc2ccc(C(F)(F)F)cc2)cc1` (centres unmarked) [Example 39, 4-acetyl-1-(4-acetylamino-benzenesulfonyl)-piperazine-2-carboxylic acid 4-trifluoromethyl-benzylamide], the IC50 in experiment [1] and in experiment [2] was more than 1000 nM in each case.
With `CC(=O)N1CCN(S(=O)(=O)c2ccc([N+](=O)[O-])cc2)C(C(=O)NCc2ccc(C(F)(F)F)cc2)C1` (centres unmarked) [Example 40, 4-acetyl-1-(4-nitro-benzenesulfonyl)-piperazine-2-carboxylic acid 4-trifluoromethyl-benzylamide], the half-maximal inhibitory concentration (IC50) in experiment [1] and in experiment [2] was more than 1000 nM throughout.
As for `CC(=O)N1CCN(S(=O)(=O)c2ccc(Cl)c(Cl)c2)C(C(=O)NCc2ccc(C(F)(F)F)cc2)C1` (centres unmarked) [Example 41, 4-acetyl-1-(3,4-dichloro-benzenesulfonyl)-piperazine-2-carboxylic acid 4-trifluoromethyl-benzylamide], the IC50 in experiment [1] and in experiment [2] was more than 1000 nM throughout.
Take `CC(=O)N1CCN(S(=O)(=O)c2cccc(-c3ccccc3)c2)C(C(=O)NCc2ccc(C(F)(F)F)cc2)C1` (centres unmarked) [Example 42, 4-acetyl-1-(biphenyl-3-sulfonyl)-piperazine-2-carboxylic acid 4-trifluoromethyl-benzylamide]: the IC50 in experiment [1] and in experiment [2] was more than 1000 nM each time.
In the case of `CC(=O)N1CCN(S(=O)(=O)c2ccc(-c3cc(C(F)(F)F)on3)s2)C(C(=O)NCc2ccc(C(F)(F)F)cc2)C1` (centres unmarked) [Example 43, 4-acetyl-1-[5-(5-trifluoromethyl-isoxazol-3-yl)-thiophene-2-sulfonyl]-piperazine-2-carboxylic acid 4-trifluoromethyl-benzylamide], the IC50 in experiment [1] and in experiment [2] was more than 1000 nM each time.
Take `COc1ccc(S(=O)(=O)N2CCN(C(C)=O)CC2C(=O)NCc2ccc(C(F)(F)F)cc2)cc1` (centres unmarked) [Example 44, 4-acetyl-1-(4-methoxy-benzenesulfonyl)-piperazine-2-carboxylic acid 4-trifluoromethyl-benzylamide]: the IC50 in experiment [1] and in experiment [2] was more than 1000 nM throughout.
On to `CC(=O)N1CCN(S(=O)(=O)c2ccc(C(F)(F)F)cc2)C(C(=O)NCc2ccc(C(F)(F)F)cc2)C1` (centres unmarked) [Example 45, 4-acetyl-1-(4-trifluoromethyl-benzenesulfonyl)-piperazine-2-carboxylic acid 4-trifluoromethyl-benzylamide], for which the IC50 in experiment [1] and in experiment [2] was more than 1000 nM throughout.
For the compound `CC(=O)N1CCN(S(=O)(=O)c2ccc(C#N)cc2)C(C(=O)NCc2ccc(C(F)(F)F)cc2)C1` (centres unmarked) [Example 46, 4-acetyl-1-(4-cyano-benzenesulfonyl)-piperazine-2-carboxylic acid 4-trifluoromethyl-benzylamide], the IC50 in experiment [1] and in experiment [2] was more than 1000 nM each time.
With `CC(=O)N1CCN(S(=O)(=O)c2ccc(S(=O)(=O)c3ccccc3)s2)C(C(=O)NCc2ccc(C(F)(F)F)cc2)C1` (centres unmarked) [Example 47, 4-acetyl-1-(5-benzenesulfonyl-thiophene-2-sulfonyl)-piperazine-2-carboxylic acid 4-trifluoromethyl-benzylamide], the IC50 in experiment [1] and in experiment [2] was more than 1000 nM in each case.
Turning to `CC(=O)N1CCN(S(=O)(=O)c2ccc3c(c2)CCO3)C(C(=O)NCc2ccc(C(F)(F)F)cc2)C1` (centres unmarked) [Example 48, 4-acetyl-1-(2,3-dihydro-benzofuran-5-sulfonyl)-piperazine-2-carboxylic acid 4-trifluoromethyl-benzylamide], the IC50 in experiment [1] and in experiment [2] was more than 1000 nM each time.
As for `CC(=O)N1CCN(S(=O)(=O)c2ccc(C(C)C)cc2)C(C(=O)NCc2ccccc2)C1` (centres unmarked) [Example 49, 4-acetyl-1-(4-isopropyl-benzenesulfonyl)-piperazine-2-carboxylic acid benzylamide], the concentration for half-maximal inhibition (IC50) in experiment [1] and in experiment [2] was more than 1000 nM each time.
For `COc1ccccc1CNC(=O)C1CN(C(C)=O)CCN1S(=O)(=O)c1ccc(C(C)C)cc1` (centres unmarked) [Example 50, 4-acetyl-1-(4-isopropyl-benzenesulfonyl)-piperazine-2-carboxylic acid 2-methoxy-benzylamide], the IC50 in experiment [1] and in experiment [2] was more than 1000 nM throughout.
Take `COc1cccc(CNC(=O)C2CN(C(C)=O)CCN2S(=O)(=O)c2ccc(C(C)C)cc2)c1` (centres unmarked) [Example 51, 4-acetyl-1-(4-isopropyl-benzenesulfonyl)-piperazine-2-carboxylic acid 3-methoxy-benzylamide]: the IC50 in experiment [1] and in experiment [2] was more than 1000 nM throughout.
On to `COc1ccc(CNC(=O)C2CN(C(C)=O)CCN2S(=O)(=O)c2ccc(C(C)C)cc2)cc1` (centres unmarked) [Example 52, 4-acetyl-1-(4-isopropyl-benzenesulfonyl)-piperazine-2-carboxylic acid 4-methoxy-benzylamide], for which the IC50 in experiment [1] and in experiment [2] was more than 1000 nM throughout.
In the case of `CC(=O)N1CCN(S(=O)(=O)c2ccc(C(C)C)cc2)C(C(=O)NCc2ccc(OC(F)(F)F)cc2)C1` (centres unmarked) [Example 53, 4-acetyl-1-(4-isopropyl-benzenesulfonyl)-piperazine-2-carboxylic acid 4-trifluoromethoxy-benzylamide], the half-maximal inhibitory concentration (IC50) in experiment [1] and in experiment [2] was 100 to 1000 nM in each case.
As for `CC(=O)N1CCN(S(=O)(=O)c2ccc(C(C)C)cc2)C(C(=O)NCc2ccc(Br)cc2)C1` (centres unmarked) [Example 54, 4-acetyl-1-(4-isopropyl-benzenesulfonyl)-piperazine-2-carboxylic acid 4-bromo-benzylamide], the IC50 in experiment [1] and in experiment [2] was more than 1000 nM in each case.
Turning to `CC(C)c1ccc(S(=O)(=O)N2CCN(C(=O)CO)CC2C(=O)NCc2ccc(C(F)(F)F)cc2)cc1` (centres unmarked) [Example 55, 4-(2-hydroxy-acetyl)-1-(4-isopropyl-benzenesulfonyl)-piperazine-2-carboxylic acid 4-trifluoromethyl-benzylamide], the IC50 in experiment [1] and in experiment [2] was more than 1000 nM in each case.
